The record followed here is patent US20170355705A1 (GlaxoSmithKline Intellectual Property (No.2) Limited, priority 2014, published 2017).

For the assay, the target named is T1, SIRT1 (Homo sapiens, UniProt Q96EB6).
T1 sequence (Q96EB6 1-747): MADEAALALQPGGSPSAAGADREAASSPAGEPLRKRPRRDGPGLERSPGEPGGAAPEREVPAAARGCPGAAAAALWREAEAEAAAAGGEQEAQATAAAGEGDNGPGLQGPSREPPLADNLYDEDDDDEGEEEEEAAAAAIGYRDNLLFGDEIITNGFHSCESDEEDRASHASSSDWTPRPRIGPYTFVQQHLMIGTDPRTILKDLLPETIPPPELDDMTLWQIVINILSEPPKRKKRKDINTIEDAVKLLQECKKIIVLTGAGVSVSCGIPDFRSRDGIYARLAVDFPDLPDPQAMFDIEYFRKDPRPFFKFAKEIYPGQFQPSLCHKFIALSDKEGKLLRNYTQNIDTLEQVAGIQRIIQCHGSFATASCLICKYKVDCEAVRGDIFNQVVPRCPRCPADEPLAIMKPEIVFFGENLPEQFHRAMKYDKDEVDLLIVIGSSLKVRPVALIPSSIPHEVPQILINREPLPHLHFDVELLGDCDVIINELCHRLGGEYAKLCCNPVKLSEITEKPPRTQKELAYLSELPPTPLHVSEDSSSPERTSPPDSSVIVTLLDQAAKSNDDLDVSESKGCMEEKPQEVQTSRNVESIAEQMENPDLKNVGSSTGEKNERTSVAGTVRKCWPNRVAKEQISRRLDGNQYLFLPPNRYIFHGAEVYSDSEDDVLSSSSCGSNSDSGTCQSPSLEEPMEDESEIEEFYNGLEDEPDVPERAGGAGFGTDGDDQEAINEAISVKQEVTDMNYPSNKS
Description: Trp mass spectrometry assay of SIRT1 activity (EC1.5, percent maximum activation). The settings on record: Trp mass spectrometry assay; 0.5 μM peptide substrate, 120 μM βNAD+, 10 nM SIRT1, 25 minutes at 25° C. Format: biochemical. Summed up: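 Activation values derive from mass-spectrometric measurement of NAD-dependent deacetylation product after a 25 min reaction of bacterially expressed His-tagged SIRT1 with a fluorophore-labelled Trp peptide.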

Regarding `O=C(NCCO)N1c2nc(-c3cccc(C(F)(F)F)c3)ccc2N2CC[C@H]1C2` [Example 378, (4S)-N-(2-hydroxyethyl)-7-(3-(trifluoromethyl)phenyl)-3,4-dihydro-1,4-methanopyrido[2,3-b][1,4]diazepine-5(2H)-carboxamide], the “TRP Activity (EC1.5, concentration of test compound that results in 150% activation of SIRT1)” value is “B (EC1.5 1-25 μM)” and the “TRP MAX RESP (percent maximum fold activation)” value was “A (Fold activation ≧150%)”.

In the case of `NC(=O)N1c2nc(-c3cccc(C(F)(F)F)c3)ccc2N2CC[C@H]1C2` [Example 379, (4S)-7-(3-(trifluoromethyl)phenyl)-3,4-dihydro-1,4-methanopyrido[2,3-b][1,4]diazepine-5(2H)-carboxamide], the “TRP Activity (EC1.5, concentration of test compound that results in 150% activation of SIRT1)” value is listed as “C (EC1.5>25 μM)” and the “TRP MAX RESP (percent maximum fold activation)” value was “B (Fold Activation <150%)”.
